Laboratory results reported in ChEMBL document CHEMBL4177539, “Discovery of N-((3R,4R)-4-Fluoro-1-(6-((3-methoxy-1-methyl-1H-pyrazol-4-yl)amino)-9-methyl-9H-purin-2-yl)pyrrolidine-3-yl)acrylamide (PF-06747775) through Structure-Based Drug Design: A High Affinity Irreversible Inhibitor Targeting Oncogenic EGFR Mutants with Selectivity over Wild-Type EGFR” (J Med Chem, 2017).
Activity calls are given as the source filed them. The calls are words filed in the database; no cut-off is given here.

Experiments:
[1] = Apparent intrinsic clearance in dog microsomes; format: ADME, Canis lupus familiaris, Microsome; settings: read-out: CL(app)
[2] = Drug metabolism in human liver microsomes assessed as demethylation; format: ADME, microsome
[3] = biological target: Tyrosine-protein kinase JAK3 (Homo sapiens) (UniProt P52333); test: Inhibition of JAK3 (unknown origin) at 1 uM by cell based assay
[4] = Apparent intrinsic clearance in mouse microsomes; format: ADME, Microsome; settings: read-out: CL(app)
Canis familiaris [5] = test: Toxicity in dog assessed as effect on central nervous system functions administered as repeated dosing; format: organism-based, Canis lupus familiaris; settings: in vivo
Rattus norvegicus [6] = test: Toxicity in rat assessed as electrocardiogram changes administered as repeated dosing; format: organism-based; settings: in vivo
[7] = Volume of distribution at steady state in Wistar Han rat at 1 mg/kg, iv administered as single dose; format: ADME, organism-based; settings: in vivo, read-out: Vdss
Rattus norvegicus [8] = test: Toxicity in rat assessed as effect on pulmonary system functions administered as repeated dosing; format: organism-based; settings: in vivo
Rattus norvegicus [9] = test: Toxicity in rat assessed as effect on central nervous system functions administered as single dose; format: organism-based; settings: in vivo
[10] = Volume of distribution at steady state in Nu/Nu mouse at 1 mg/kg, iv administered as single dose; format: ADME, organism-based; settings: in vivo, read-out: Vdss
Canis familiaris [11] = test: Toxicity in dog assessed as effect on central nervous system functions administered as single dose; format: organism-based, Canis lupus familiaris; settings: in vivo
[12] = Fraction unbound in human plasma at 2 uM by LC-MS/MS based equilibrium dialysis method; format: ADME, cell-free
Canis familiaris [13] = test: Toxicity in dog assessed as body weight loss administered as repeated dosing for 91 days; format: organism-based, Canis lupus familiaris; settings: in vivo, 2184 h
[14] = Half life in human blood at 1 uM by LC-MS/MS analysis; format: ADME, tissue-based
[15] = Apparent intrinsic hepatic clearance in rat hepatocytes; format: ADME, cell-based, Hepatocyte; settings: read-out: CLH(app)
Rattus norvegicus [16] = test: Toxicity in rat assessed as electrocardiogram changes administered as single dose; format: organism-based; settings: in vivo
[17] = biological target: Tyrosine-protein kinase BTK (Homo sapiens) (UniProt Q06187); test: Inhibition of BTK (unknown origin) at 1 uM by cell based assay
Chain of Tyrosine-protein kinase BTK (Homo sapiens) (Q06187 whole entry, the tested form may be a part): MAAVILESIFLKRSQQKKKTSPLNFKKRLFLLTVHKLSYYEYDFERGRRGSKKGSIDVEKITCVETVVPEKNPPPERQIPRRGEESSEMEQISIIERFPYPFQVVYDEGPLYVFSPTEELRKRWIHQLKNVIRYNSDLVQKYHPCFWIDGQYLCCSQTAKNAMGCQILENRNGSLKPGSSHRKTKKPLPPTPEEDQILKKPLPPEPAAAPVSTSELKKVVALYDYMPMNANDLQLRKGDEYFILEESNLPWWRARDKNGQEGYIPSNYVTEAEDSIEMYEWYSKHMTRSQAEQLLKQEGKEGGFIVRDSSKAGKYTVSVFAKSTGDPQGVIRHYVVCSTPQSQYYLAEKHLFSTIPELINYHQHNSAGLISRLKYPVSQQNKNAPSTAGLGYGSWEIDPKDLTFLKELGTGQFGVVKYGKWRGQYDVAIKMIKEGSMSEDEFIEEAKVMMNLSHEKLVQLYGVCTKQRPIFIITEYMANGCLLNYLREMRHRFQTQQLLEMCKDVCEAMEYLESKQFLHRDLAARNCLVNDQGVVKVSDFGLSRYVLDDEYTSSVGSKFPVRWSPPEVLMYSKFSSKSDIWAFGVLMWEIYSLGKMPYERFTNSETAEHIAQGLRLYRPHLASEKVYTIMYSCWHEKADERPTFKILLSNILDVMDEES

[18] = Clearance in Beagle dog plasma at 1 mg/kg, iv administered as single dose; format: ADME, organism-based, Canis lupus familiaris
in vitro [19] = settings: dog, MDCK
CYP3A4 = CYP3A4 (Homo sapiens, UniProt P08684); test: Inhibition of human CYP3A4 at 10 uM; format: ADME
CYP1A2 = CYP1A2 (Homo sapiens, UniProt P05177); test: Inhibition of human CYP1A2 at 10 uM; format: ADME
Chain of CYP1A2 (P05177 whole entry, the tested form may be a part): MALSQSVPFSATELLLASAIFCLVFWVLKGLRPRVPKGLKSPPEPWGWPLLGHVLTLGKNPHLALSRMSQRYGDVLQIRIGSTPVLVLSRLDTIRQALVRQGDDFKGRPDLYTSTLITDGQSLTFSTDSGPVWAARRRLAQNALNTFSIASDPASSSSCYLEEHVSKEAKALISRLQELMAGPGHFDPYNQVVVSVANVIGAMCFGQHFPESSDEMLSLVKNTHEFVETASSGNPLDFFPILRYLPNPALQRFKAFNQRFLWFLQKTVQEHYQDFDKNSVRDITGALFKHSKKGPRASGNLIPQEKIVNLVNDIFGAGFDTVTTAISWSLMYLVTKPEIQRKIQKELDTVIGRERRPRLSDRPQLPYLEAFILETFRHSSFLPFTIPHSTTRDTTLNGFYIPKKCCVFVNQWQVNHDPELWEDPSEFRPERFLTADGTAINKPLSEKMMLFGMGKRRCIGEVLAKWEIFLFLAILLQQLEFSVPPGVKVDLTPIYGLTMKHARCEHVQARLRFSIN

[20] = biological target: Receptor tyrosine-protein kinase erbB-4 (Homo sapiens) (UniProt Q15303); test: Inhibition of N-terminal GST-tagged recombinant human ErbB4 cytoplasmic domain (708 to 993 residues) expressed in Baculovirus expression system at 1 uM by FRET-based Z'-LYTE assay
Chain of Receptor tyrosine-protein kinase erbB-4 (Homo sapiens) (Q15303 whole entry, the tested form may be a part): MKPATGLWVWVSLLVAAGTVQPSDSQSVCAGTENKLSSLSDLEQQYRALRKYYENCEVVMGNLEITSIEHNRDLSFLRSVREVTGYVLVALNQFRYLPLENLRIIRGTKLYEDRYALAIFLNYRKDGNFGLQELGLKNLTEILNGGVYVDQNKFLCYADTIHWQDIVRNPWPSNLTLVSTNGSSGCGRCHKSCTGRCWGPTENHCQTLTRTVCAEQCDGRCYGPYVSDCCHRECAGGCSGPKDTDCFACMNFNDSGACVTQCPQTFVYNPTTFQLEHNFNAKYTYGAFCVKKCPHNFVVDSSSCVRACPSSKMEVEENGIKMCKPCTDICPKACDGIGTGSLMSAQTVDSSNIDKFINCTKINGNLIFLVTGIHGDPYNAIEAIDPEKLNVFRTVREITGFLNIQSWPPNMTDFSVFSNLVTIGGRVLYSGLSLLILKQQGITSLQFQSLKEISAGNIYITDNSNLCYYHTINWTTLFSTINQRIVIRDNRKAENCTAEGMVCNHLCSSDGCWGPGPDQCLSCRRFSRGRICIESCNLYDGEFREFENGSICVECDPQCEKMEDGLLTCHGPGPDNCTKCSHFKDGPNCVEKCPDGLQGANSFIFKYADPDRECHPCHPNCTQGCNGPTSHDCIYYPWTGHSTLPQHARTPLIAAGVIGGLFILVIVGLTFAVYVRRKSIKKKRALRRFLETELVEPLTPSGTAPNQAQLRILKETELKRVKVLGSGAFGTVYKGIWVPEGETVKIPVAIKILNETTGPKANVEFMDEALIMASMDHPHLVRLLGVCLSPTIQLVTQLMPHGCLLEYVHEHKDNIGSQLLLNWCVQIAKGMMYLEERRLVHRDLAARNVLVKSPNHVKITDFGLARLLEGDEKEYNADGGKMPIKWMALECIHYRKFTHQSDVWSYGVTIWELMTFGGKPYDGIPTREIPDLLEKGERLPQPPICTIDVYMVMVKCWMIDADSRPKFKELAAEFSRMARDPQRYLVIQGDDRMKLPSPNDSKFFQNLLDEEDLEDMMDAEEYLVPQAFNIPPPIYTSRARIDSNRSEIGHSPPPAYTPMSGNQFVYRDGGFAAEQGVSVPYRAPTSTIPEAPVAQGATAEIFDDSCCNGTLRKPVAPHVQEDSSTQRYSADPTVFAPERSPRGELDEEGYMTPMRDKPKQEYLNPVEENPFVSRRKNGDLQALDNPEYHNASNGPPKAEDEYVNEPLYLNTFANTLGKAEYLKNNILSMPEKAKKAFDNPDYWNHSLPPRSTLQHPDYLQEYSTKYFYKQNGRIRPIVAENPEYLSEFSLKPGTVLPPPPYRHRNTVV

Canis familiaris [21] = test: Toxicity in dog assessed as effect on pulmonary system functions administered as repeated dosing; format: organism-based, Canis lupus familiaris; settings: in vivo
[22] = Oral bioavailability in Wistar Han rat at 30 mg/kg administered as single dose; format: ADME, organism-based; settings: in vivo
Rattus norvegicus [23] = test: Toxicity in rat assessed as effect on blood pressure administered as single dose; format: organism-based; settings: in vivo
[24] = biological target: Voltage-gated inwardly rectifying potassium channel KCNH2 (Homo sapiens, UniProt Q12809); test: Inhibition of human ERG
Chain of Voltage-gated inwardly rectifying potassium channel KCNH2 (Q12809 whole entry): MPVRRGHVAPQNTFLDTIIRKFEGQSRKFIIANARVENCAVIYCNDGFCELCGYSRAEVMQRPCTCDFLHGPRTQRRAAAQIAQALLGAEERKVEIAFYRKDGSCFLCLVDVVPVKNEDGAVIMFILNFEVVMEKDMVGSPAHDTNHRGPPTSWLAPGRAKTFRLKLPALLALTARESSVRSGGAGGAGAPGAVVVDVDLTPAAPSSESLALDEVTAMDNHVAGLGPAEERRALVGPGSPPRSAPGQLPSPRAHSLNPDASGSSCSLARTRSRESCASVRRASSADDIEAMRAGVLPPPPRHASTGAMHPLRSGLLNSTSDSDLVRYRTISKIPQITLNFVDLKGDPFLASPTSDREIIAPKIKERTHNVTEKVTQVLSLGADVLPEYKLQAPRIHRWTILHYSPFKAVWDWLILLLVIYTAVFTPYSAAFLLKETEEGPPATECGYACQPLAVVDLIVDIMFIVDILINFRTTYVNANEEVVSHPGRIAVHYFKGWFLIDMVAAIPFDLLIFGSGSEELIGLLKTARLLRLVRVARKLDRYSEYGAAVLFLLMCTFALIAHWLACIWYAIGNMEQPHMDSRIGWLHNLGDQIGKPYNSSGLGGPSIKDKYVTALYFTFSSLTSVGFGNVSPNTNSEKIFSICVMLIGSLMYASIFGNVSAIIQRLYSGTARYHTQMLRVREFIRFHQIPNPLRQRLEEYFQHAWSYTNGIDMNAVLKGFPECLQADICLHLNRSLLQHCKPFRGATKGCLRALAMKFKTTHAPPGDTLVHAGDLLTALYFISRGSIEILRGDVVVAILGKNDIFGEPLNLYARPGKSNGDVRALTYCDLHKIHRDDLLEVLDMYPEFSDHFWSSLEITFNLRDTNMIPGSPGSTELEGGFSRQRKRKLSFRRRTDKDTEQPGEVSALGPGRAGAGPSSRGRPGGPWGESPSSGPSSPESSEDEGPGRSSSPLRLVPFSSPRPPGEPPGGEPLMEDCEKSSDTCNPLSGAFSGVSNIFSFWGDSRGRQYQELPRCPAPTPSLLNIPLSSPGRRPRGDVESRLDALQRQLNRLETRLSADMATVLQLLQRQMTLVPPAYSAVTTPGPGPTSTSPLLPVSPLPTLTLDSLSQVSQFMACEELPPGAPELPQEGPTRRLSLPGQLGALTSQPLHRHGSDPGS

[25] = Apparent intrinsic clearance in rat microsomes; format: ADME, Microsome; settings: read-out: CL(app)
Rattus norvegicus [26] = test: Toxicity in rat assessed as effect on blood pressure administered as repeated dosing; format: organism-based; settings: in vivo
[27] = Terminal half life in Wistar Han rat at 1 mg/kg, iv administered as single dose; format: ADME, organism-based; settings: in vivo, read-out: beta t1/2 (converted)
Canis familiaris [28] = test: Toxicity in dog assessed as electrocardiogram changes administered as single dose; format: organism-based, Canis lupus familiaris; settings: in vivo
Hepatocyte = settings: human, hepatocytes, 1 µM
[29] = Oral bioavailability in Beagle dog at 3 mg/kg administered as single dose; format: ADME, organism-based, Canis lupus familiaris; settings: in vivo
[30] = Time-dependent inhibition of CYP450 (unknown origin); format: ADME; settings: human
[31] = Fraction unbound in dog plasma at 2 uM by LC-MS/MS based equilibrium dialysis method; format: ADME, cell-free, Canis lupus familiaris
Rattus norvegicus [32] = test: Toxicity in rat assessed as effect on central nervous system functions administered as repeated dosing; format: organism-based; settings: in vivo
[33] = Drug metabolism in human hepatocytes assessed as demethylation; format: ADME, cell-based, Hepatocyte
[34] = Terminal half life in Beagle dog at 1 mg/kg, iv administered as single dose; format: ADME, organism-based, Canis lupus familiaris; settings: in vivo, read-out: beta t1/2 (converted)
[35] = Apparent intrinsic clearance in human hepatocytes; format: ADME, cell-based, Hepatocyte; settings: read-out: CLH(app)
Canis familiaris [36] = test: Toxicity in dog assessed as effect on heart rate administered as repeated dosing; format: organism-based, Canis lupus familiaris; settings: in vivo
[37] = biological target: Tyrosine-protein kinase BTK (Homo sapiens) (UniProt Q06187); test: Inhibition of His-tagged full-length recombinant human BTK cytoplasmic domain expressed in Baculovirus expression system at 1 uM by FRET-based Z'-LYTE assay
Canis familiaris [38] = test: Toxicity in dog assessed as effect on heart rate administered as single dose; format: organism-based, Canis lupus familiaris; settings: in vivo
[39] = Apparent intrinsic clearance in human microsomes; format: ADME, Microsome; settings: read-out: CL(app)
CYP2C9 = CYP2C9 (Homo sapiens, UniProt P11712); test: Inhibition of human CYP2C9 at 10 uM; format: ADME
[40] = Half life in Sprague-Dawley rat blood at 1 uM by LC-MS/MS analysis; format: ADME, tissue-based
[41] = Fraction unbound in rat plasma at 2 uM by LC-MS/MS based equilibrium dialysis method; format: ADME, cell-free
[42] = Half life in CD-1 mouse blood at 1 uM by LC-MS/MS analysis; format: ADME, tissue-based
[43] = biological target: Cytoplasmic tyrosine-protein kinase BMX (Homo sapiens) (UniProt P51813); test: Inhibition of His-tagged full-length recombinant human BMX cytoplasmic domain expressed in Baculovirus expression system at 1 uM by FRET-based Z'-LYTE assay
Chain of Cytoplasmic tyrosine-protein kinase BMX (Homo sapiens) (P51813 whole entry, the tested form may be a part): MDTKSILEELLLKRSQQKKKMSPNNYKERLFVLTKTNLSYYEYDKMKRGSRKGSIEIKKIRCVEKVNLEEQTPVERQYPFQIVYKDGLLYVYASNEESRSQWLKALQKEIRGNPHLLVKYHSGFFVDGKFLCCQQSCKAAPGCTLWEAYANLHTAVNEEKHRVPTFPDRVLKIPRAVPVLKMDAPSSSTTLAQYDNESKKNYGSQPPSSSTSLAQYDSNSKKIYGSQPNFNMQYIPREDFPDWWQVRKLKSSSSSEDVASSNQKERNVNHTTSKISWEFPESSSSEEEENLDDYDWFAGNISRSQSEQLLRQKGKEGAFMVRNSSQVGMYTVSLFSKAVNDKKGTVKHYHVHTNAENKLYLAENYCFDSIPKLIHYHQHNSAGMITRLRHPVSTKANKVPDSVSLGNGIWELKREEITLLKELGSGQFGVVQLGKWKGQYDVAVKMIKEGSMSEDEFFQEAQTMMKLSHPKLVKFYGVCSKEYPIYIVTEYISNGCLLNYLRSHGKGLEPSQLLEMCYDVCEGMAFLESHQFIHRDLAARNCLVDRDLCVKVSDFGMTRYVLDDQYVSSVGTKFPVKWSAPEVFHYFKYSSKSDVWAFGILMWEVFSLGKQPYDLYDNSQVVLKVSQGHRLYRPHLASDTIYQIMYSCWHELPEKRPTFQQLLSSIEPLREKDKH

[44] = Clearance in Wistar Han rat plasma at 1 mg/kg, iv administered as single dose; format: ADME, organism-based
[45] = Fraction unbound in mouse plasma at 2 uM by LC-MS/MS based equilibrium dialysis method; format: ADME, cell-free
Canis familiaris [46] = test: Toxicity in dog assessed as effect on blood pressure administered as single dose; format: organism-based, Canis lupus familiaris; settings: in vivo
[47] = Clearance in Nu/Nu mouse plasma at 1 mg/kg, iv administered as single dose; format: ADME, organism-based
in vitro [48] = settings: human, liver microsomes
[49] = Apparent intrinsic hepatic clearance in mouse hepatocytes; format: ADME, cell-based, Hepatocyte; settings: read-out: CLH(app)
Rattus norvegicus [50] = test: Toxicity in rat assessed as effect on pulmonary system functions administered as single dose; format: organism-based; settings: in vivo
[51] = biological target: Proto-oncogene tyrosine-protein kinase ROS (Homo sapiens) (UniProt P08922); test: Inhibition of ROS (unknown origin) at 1 uM by cell based assay
CYP2D6 = CYP2D6 (Homo sapiens, UniProt P10635); test: Inhibition of human CYP2D6 at 10 uM; format: ADME
Canis familiaris [52] = test: Toxicity in dog assessed as effect on pulmonary system functions administered as single dose; format: organism-based, Canis lupus familiaris; settings: in vivo
Salmonella typhimurium = test: Mutagenicity in Salmonella typhimurium by Ames test; format: toxicity, organism-based; settings: salmonella enterica subsp. enterica serovar typhimurium
[53] = biological target: Tyrosine-protein kinase Blk (Homo sapiens) (UniProt P51451); test: Inhibition of BLK (unknown origin) at 1 uM by cell based assay
Chain of Tyrosine-protein kinase Blk (Homo sapiens) (P51451 2-505 limits assumed): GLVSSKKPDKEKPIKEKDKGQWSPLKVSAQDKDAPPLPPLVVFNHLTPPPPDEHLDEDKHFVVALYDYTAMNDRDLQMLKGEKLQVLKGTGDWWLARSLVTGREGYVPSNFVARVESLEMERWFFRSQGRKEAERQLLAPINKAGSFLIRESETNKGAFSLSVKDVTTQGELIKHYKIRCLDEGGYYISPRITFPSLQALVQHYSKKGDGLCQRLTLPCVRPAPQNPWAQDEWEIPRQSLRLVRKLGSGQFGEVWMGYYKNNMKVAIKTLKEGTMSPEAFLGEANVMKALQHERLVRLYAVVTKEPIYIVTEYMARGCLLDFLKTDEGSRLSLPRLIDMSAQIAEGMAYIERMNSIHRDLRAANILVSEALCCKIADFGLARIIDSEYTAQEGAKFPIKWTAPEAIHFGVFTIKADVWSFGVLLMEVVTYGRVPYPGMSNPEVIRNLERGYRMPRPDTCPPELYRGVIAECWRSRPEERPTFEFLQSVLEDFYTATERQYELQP

C=CC(=O)N[C@@H]1CN(c2nc(Nc3cn(C)nc3OC)c3ncn(C)c3n2)C[C@H]1F [MAVELERTINIB]
CLint scaled [1]: 3 mL/min/kg | Drug metabolism [2]: Metabolite_Detected | inhibition [3]: Active | CLint scaled [4]: 74 mL/min/kg | Activity (Canis familiaris [5]): Non-Toxic | Activity (Rattus norvegicus [6]): Non-Toxic | Vd [7]: 0.66 L/kg | Activity (Rattus norvegicus [8]): Non-Toxic | Activity (Rattus norvegicus [9]): Non-Toxic | Vd [10]: 1.48 L/kg | Activity (Canis familiaris [11]): Non-Toxic | fraction unbound at 2 µM [12]: 0.27 | Activity (Canis familiaris [13]): Non-Toxic | half-life at 1 µM [14]: 5.8 h | CLint scaled [15]: 183 mL/min/kg | Activity (Rattus norvegicus [16]): Non-Toxic | inhibition [17]: Active | clearance [18]: 12 mL/min/kg | Papp (in vitro [19]): 9 ×10⁻⁶ cm/s | inhibition at 10 µM (CYP3A4): < 30% | inhibition at 10 µM (CYP1A2): < 30% | inhibition [20]: > 50% | Activity (Canis familiaris [21]): Non-Toxic | bioavailability [22]: 11% | Activity (Rattus norvegicus [23]): Non-Toxic | IC50 [24]: > 100 µM | CLint scaled [25]: 141 mL/min/kg | Activity (Rattus norvegicus [26]): Non-Toxic | half-life [27]: 0.28 h | Activity (Canis familiaris [28]): Non-Toxic | CLH (Hepatocyte): 3 µL/min/mg | bioavailability [29]: 66% | TDI [30]: Not Active | fraction unbound at 2 µM [31]: 0.75 | Activity (Rattus norvegicus [32]): Non-Toxic | Drug metabolism [33]: Metabolite_Detected | half-life [34]: 1.3 h | CLint scaled [35]: 3 mL/min/kg | Activity (Canis familiaris [36]): Non-Toxic | inhibition [37]: > 50% | Activity (Canis familiaris [38]): Non-Toxic | CLint scaled [39]: < 6 mL/min/kg | inhibition at 10 µM (CYP2C9): < 30% | half-life at 1 µM [40]: 3.95 h | fraction unbound at 2 µM [41]: 0.22 | half-life at 1 µM [42]: 5.1 h | inhibition [43]: > 50% | clearance [44]: 49 mL/min/kg | fraction unbound at 2 µM [45]: 0.2 to 0.49 | Activity (Canis familiaris [46]): Non-Toxic | clearance [47]: 53 mL/min/kg | microsomal CLint at […], 1 µM (in vitro [48]): 8 µL/min/mg | CLint scaled [49]: 196 mL/min/kg | Activity (Rattus norvegicus [50]): Non-Toxic | inhibition [51]: Active | inhibition at 10 µM (CYP2D6): < 30% | Activity (Canis familiaris [52]): Non-Toxic | Activity (Salmonella typhimurium): Non-Toxic | inhibition [53]: Active
